Data on one compound can be found in ChEMBL document CHEMBL4823249, “Discovery of a Pyrimidinedione Derivative as a Potent and Orally Bioavailable Axl Inhibitor” (J Med Chem, 2021).

The structures appear in SMILES notation. Activity calls are given as the source filed them. No cut-off for these calls is given here.

Data set [1] concerns U-87 MG. In words: Antitumor activity against human U-87MG cells xenografted in po dosed BALB/c nude mouse assessed as tumor growth inhibition administered once daily for 14 days by caliper method. It counts as functional, organism-based. The following applies: U-87MG ATCC, dose 5-100 mg/kg, time 14.0 day. For orientation: In xenograft studies the graft and the host belong to different species.

Data set [2] has as its target Mast/stem cell growth factor receptor Kit (Homo sapiens, UniProt P10721). Put plainly: Inhibition of recombinant human C-Kit using poly(Glu, Tyr) 4:1 as substrate incubated for 40 mins in presence of [gamma-33ATP] by scintillation counting based radiometry assay.
A further data set relates to EBC-1. In words: Antiproliferative activity against human EBC-1 cells incubated for 72 hrs by SRB or CCK8 assay. It counts as functional, cell-based. The note with it: EBC-1, 72 h.
Another data set deals with CDK2/Cyclin A2 (Homo sapiens, UniProt P24941). In words: Inhibition of full length human recombinant CDK2/Cyclin A using histone H1 as substrate incubated for 40 mins in presence of [gamma-33ATP] by radiometric scintillation counting analysis. The class given is protein-complex assay.
Data set [3] relates to BaF3. Put plainly: Antitumor activity against mouse BaF3/TEL-AXL cells xenografted in BALB/c nude mouse assessed as tumor growth inhibition at 5 mg/kg, po administered once daily for 14 days by caliper method. It counts as functional. The following applies: 336 h, time 14 day, read-out: TGI.
Another data set has as its system NCI-H1299. Put plainly: Inhibition of Gas6-stimulated cell migration in human NCI-H1299 cells at […] after 24 hrs by crystal violet staining based microscopic analysis. It counts as functional. The following applies: dose lower 5.0 µM.
Data set [4] deals with BaF3. Put plainly: Antitumor activity against mouse BaF3/TEL-AXL cells xenografted in BALB/c nude mouse assessed as tumor growth inhibition at 1 mg/kg, po administered once daily for 14 days by caliper method. The class given is functional. The note with it: 336 h, time 14 day, read-out: TGI.
Data set [5] can be described thus: Half life in Sprague-Dawley rat at 3 mg/kg, po measured upto 24 hrs by LC-MS analysis. The class given is ADME, organism-based. The following applies: in vivo.
Data set [6] deals with U-87 MG. Put plainly: Antitumor activity against human U-87MG cells xenografted in BALB/c nude mouse assessed as tumor growth inhibition at 25 mg/kg, po administered once daily for 14 days by caliper method. It counts as functional, U-87MG ATCC. The note with it: 336 h, time 14 day, read-out: TGI.
Data set [7] addresses Vascular endothelial growth factor receptor 2 (Homo sapiens, UniProt P35968). In words: Inhibition of recombinant human KDR (790 to end residues) using myelin basic protein as substrate incubated for 40 mins by [gamma-33P]-ATP scintillation counting based radiometry assay.
Data set [8] has as its target T1, Tyrosine-protein kinase receptor UFO (Mus musculus) (UniProt Q00993).
T1 sequence (whole entry): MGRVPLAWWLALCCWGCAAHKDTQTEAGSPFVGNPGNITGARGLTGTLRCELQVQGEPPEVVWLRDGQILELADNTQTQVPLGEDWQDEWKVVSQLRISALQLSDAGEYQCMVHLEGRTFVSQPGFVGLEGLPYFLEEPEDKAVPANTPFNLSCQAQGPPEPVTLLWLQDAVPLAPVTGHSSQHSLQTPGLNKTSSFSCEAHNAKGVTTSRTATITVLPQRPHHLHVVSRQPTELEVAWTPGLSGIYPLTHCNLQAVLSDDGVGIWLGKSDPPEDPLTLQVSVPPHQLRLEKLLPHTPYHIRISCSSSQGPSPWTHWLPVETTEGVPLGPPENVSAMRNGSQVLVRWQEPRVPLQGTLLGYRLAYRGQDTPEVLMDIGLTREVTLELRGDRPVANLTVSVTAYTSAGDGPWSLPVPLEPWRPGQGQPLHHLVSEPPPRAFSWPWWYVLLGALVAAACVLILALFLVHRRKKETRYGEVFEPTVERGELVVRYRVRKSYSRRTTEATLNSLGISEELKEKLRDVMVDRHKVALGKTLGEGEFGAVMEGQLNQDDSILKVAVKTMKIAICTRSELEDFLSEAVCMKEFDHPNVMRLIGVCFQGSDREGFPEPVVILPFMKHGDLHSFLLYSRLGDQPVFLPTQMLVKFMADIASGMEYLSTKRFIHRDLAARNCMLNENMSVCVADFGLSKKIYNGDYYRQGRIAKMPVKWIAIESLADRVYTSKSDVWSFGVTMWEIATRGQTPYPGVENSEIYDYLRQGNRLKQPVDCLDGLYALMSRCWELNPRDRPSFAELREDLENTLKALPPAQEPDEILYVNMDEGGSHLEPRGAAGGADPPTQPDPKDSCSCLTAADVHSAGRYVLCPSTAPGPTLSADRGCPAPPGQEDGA
In words: Inhibition of AXL in mouse BaF3/TEL-AXL cells assessed as reduction in Gas6-induced phosphorylation of AXL at 0.5 to 50 nM preincubated for 2 hrs followed by Gas6 stimulation for 15 mins by Western blotting analysis. It counts as cell-based. The following applies: dose 0.5-50 nM. (In general: Immunoblotting shows a protein as a band on a membrane.)

In data set [9] the target is Tyrosine-protein kinase Mer (Homo sapiens, UniProt Q12866). In words: Inhibition of recombinant human MER (557 to 882 residues) using GGMEDIYFEFMGG as substrate incubated for 40 mins in presence of [gamma-33ATP by scintillation counting based radiometry assay.
Sequence of Tyrosine-protein kinase Mer (Q12866 whole entry, the tested form may be a part): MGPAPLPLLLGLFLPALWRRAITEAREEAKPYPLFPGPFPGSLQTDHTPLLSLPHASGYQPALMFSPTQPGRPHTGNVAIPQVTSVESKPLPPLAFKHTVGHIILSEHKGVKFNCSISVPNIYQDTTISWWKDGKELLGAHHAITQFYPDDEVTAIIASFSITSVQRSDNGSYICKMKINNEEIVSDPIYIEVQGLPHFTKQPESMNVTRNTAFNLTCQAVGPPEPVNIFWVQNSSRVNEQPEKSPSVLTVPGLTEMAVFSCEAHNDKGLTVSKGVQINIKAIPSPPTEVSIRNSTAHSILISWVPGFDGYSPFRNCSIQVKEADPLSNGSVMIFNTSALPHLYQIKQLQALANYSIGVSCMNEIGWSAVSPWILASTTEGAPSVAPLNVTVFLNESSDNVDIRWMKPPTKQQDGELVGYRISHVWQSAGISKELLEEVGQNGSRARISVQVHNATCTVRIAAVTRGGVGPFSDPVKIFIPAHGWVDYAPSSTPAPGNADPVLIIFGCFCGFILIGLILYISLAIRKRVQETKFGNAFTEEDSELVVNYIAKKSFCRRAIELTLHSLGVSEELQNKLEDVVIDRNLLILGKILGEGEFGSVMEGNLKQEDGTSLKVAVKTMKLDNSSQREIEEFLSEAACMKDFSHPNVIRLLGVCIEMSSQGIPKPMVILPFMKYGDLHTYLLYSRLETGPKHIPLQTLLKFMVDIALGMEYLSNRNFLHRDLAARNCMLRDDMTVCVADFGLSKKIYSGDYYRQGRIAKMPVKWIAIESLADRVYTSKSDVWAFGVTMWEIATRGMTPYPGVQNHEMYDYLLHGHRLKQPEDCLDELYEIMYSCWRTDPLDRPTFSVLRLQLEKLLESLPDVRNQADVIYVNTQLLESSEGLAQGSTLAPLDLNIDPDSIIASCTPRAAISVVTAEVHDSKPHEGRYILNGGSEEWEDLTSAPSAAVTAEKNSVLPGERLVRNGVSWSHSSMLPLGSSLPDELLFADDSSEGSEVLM
Data set [10] concerns the target Mitogen-activated protein kinase kinase kinase 20 (Homo sapiens, UniProt Q9NYL2). Put plainly: Inhibition of recombinant full-length human ZAK using MBP as substrate incubated for 40 mins in presence of [gamma33P]ATP by scintillation counting based radiometry assay.
For the next data set, the system named is NCI-H1975. In words: Antiproliferative activity against human NCI-H1975 cells incubated for 72 hrs by SRB or CCK8 assay. The class given is functional, cell-based. The following applies: NCI-H1975, 72 h.
The subject of data set [11] is BaF3. In words: Antitumor activity against mouse BaF3/TEL-AXL cells xenografted in BALB/c nude mouse assessed as tumor growth inhibition at 25 mg/kg, po administered once daily for 14 days by caliper method. The class given is functional. The note with it: 336 h, time 14 day, read-out: TGI.
Data set [12] in a line: AUC(0 to infinity) in ICR mouse at 1 mg/kg, iv measured upto 24 hrs by LC-MS analysis. The class given is ADME, organism-based. Details: route intravenous, dose 1 mg/kg, time <=24. The note with it: in vivo.
Data set [13] has as its target Receptor tyrosine-protein kinase erbB-4 (Homo sapiens, UniProt Q15303). In words: Inhibition of recombinant human ERBB4 (706 to 991 residues) using poly(Glu, Tyr) 4:1 as substrate incubated for 40 mins in presence of [gamma-33ATP] by scintillation counting based radiometry assay.
For data set [14], the target named is Hepatocyte growth factor receptor (Homo sapiens, UniProt P08581). In words: Inhibition of MET signaling in human MKN45 cells assessed as reduction in phosphorylation of MET after 2 hrs by Western blotting analysis. The class given is cell-based. The note with it: MKN-45, dose 10-100 nM.
The nature of data set [15]: AUC(0 to infinity) in ICR mouse at 3 mg/kg, po measured upto 24 hrs by LC-MS analysis. It counts as ADME, organism-based. Set-up: route oral, dose 3 mg/kg, time <=24. The note with it: in vivo.
Data set [16] concerns U-87 MG. Put plainly: Antitumor activity against human U-87MG cells xenografted in BALB/c nude mouse assessed as tumor growth inhibition at 100 mg/kg, po administered once daily for 14 days by caliper method. It counts as functional, U-87MG ATCC. The following applies: 336 h, time 14 day, read-out: TGI.
Data set [17] addresses Proto-oncogene tyrosine-protein kinase Src (Homo sapiens, UniProt P12931). Put plainly: Inhibition of recombinant human C-Src using KVEKIGEGTYGVVYK as substrate incubated 40 mins in presence of [gamma-33ATP] by scintillation counting based radiometry assay.
Data set [18] can be described thus: Oral availability in ICR mouse at 3 mg/kg measured upto 24 hrs by LC-MS analysis. The class given is ADME, organism-based. The following applies: in vivo.

Sequence of Proto-oncogene tyrosine-protein kinase Src (P12931 2-536 limits assumed): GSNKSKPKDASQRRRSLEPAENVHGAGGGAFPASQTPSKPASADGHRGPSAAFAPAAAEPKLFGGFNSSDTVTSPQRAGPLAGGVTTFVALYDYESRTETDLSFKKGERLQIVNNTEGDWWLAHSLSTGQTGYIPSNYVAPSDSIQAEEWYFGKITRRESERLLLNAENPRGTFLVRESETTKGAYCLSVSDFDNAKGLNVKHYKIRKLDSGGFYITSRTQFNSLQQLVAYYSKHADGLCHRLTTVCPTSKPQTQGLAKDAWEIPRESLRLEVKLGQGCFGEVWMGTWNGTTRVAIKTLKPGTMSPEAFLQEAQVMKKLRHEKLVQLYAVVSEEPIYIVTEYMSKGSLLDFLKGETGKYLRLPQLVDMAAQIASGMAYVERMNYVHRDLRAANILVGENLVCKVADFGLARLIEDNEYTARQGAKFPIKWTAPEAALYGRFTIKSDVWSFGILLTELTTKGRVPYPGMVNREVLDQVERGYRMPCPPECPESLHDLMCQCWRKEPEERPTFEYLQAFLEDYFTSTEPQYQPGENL
Sequence of Mitogen-activated protein kinase kinase kinase 20 (Q9NYL2 whole entry): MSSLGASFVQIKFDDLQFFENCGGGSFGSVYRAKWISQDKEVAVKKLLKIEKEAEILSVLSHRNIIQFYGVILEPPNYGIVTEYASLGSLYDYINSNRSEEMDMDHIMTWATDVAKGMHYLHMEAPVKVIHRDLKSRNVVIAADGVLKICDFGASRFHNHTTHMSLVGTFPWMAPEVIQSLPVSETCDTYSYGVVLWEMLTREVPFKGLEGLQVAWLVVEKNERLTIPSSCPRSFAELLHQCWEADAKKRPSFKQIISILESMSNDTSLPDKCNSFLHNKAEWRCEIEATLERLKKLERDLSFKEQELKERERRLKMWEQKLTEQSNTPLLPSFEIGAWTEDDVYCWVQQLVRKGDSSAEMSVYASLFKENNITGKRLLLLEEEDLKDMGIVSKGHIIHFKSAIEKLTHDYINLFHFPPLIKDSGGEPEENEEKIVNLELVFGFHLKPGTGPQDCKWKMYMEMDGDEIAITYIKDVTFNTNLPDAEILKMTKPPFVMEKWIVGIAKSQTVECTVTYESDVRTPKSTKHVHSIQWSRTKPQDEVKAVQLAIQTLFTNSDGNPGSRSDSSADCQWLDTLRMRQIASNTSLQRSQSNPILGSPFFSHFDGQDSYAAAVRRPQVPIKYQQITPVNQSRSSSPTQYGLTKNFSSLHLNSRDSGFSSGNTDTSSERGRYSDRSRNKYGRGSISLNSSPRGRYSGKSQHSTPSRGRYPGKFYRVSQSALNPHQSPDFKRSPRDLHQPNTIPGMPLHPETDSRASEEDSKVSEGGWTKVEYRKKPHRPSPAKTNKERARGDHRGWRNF
Sequence of Receptor tyrosine-protein kinase erbB-4 (Q15303 whole entry, the tested form may be a part): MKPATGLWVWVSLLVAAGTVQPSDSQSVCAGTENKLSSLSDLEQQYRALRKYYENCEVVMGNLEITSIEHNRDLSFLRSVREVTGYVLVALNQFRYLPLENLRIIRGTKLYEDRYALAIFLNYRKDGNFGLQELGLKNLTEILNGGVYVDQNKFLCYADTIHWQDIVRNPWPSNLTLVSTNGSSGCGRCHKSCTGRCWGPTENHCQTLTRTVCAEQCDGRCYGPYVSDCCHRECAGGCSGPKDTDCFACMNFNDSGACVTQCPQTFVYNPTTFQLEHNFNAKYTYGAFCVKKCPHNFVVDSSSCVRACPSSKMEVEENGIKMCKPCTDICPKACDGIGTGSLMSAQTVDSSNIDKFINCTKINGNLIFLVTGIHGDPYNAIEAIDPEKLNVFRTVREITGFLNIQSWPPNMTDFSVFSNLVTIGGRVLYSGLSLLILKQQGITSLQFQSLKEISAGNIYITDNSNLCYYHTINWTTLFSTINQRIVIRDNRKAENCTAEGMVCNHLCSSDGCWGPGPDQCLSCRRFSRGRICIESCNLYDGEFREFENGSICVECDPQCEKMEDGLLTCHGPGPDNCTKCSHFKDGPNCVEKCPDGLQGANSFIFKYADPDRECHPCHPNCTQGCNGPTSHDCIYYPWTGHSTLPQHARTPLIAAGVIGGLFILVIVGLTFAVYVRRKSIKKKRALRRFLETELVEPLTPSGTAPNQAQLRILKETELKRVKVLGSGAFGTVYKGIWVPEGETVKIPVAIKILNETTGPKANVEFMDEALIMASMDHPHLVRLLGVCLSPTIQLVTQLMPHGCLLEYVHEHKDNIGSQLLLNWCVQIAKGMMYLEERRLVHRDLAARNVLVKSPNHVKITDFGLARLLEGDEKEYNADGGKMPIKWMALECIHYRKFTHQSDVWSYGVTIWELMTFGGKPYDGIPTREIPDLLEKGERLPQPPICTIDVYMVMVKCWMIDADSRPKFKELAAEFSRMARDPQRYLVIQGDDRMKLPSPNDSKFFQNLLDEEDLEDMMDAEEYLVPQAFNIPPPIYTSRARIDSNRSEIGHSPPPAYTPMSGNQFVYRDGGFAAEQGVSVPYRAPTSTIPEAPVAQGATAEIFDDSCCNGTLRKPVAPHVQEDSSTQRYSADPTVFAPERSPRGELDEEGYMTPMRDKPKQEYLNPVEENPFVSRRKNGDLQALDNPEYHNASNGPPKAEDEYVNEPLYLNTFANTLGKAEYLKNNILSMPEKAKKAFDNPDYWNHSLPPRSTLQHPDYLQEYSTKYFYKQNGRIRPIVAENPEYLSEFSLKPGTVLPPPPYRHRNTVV
Sequence of Mast/stem cell growth factor receptor Kit (P10721 whole entry): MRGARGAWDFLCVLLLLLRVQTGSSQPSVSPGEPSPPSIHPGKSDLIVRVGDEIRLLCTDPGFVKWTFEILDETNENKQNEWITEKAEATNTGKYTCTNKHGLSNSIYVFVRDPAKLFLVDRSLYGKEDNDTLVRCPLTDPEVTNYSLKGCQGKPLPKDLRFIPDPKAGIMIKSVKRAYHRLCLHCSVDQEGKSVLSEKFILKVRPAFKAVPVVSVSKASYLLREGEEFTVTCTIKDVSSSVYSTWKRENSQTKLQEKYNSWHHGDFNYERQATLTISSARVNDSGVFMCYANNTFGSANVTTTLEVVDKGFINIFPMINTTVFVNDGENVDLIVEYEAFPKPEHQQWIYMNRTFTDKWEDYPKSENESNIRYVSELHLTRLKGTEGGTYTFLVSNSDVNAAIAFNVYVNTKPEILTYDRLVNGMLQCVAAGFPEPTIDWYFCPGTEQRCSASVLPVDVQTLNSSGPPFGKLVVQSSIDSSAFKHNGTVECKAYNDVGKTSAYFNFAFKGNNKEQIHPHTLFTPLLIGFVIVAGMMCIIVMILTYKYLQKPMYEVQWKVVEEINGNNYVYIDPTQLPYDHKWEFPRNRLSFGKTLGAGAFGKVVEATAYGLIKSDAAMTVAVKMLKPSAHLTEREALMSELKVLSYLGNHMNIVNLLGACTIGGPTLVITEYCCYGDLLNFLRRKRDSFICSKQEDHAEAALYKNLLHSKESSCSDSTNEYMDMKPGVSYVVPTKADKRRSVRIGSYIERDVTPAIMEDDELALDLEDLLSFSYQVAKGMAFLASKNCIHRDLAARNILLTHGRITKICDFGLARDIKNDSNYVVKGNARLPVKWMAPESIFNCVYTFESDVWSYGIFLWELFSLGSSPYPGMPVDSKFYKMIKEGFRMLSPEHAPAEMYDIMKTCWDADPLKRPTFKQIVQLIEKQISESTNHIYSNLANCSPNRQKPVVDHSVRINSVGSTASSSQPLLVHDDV

In general, IC50 refers to the concentration at which inhibition is half-maximal. In general, half-life refers to how long it takes for the measured level to halve. High values mean slow decline, low ones rapid decline. As usually defined, the AUC(0-inf) is total exposure, with the tail of the curve extrapolated. A lower AUC(0-inf) goes with low exposure. Turning to `CC(C)n1cc(C(=O)Nc2ccc(Oc3ccnc(NC(=O)C4CC4)c3)c(F)c2)c(=O)n(-c2ccc(F)cc2)c1=O`, the Activity result in the data set on U-87 MG [1] was “Dose-Dependent Effect”. Also, the concentration for half-maximal inhibition (IC50) in data set [2] is over 1 µM; in the data set on EBC-1, 0.064 µM; at CDK2/Cyclin A2, over 1 µM; in data set [7] it was over 1 µM; in data set [9], under 0.01 µM; in data set [10], over 0.1 µM. For the same compound, the IC50 is over 10 µM with NCI-H1975, over 1 µM in data set [13] and over 1 µM in data set [17]. Also, the inhibition in vivo at 5 mg/kg in the data set with BaF3 [3] is 106%. The inhibition result (in the data set on NCI-H1299; in data set [8]) was “Active” throughout. For the same compound, the inhibition in vivo at 1 mg/kg in the data set with BaF3 [4] was 90.9%. The same compound gave a half-life in data set [5] of 13.8 h. Further, the inhibition in vivo at 25 mg/kg in the data set on U-87 MG [6] was 89.8%; in the data set on BaF3 [11] it was 106%. Besides, the AUC(0-inf) turned out to be 7360 ng·h/mL in data set [12] and 25100 ng·h/mL in [15]. In addition, the inhibition entry in data set [14] was “Dose-Dependent Effect”. The inhibition in vivo at 100 mg/kg in the data set on U-87 MG [16] was 99.1%. Besides, the bioavailability in data set [18] amounted to 114%.
